Data: patent US20230150920A1, “SALTS AND SOLID FORMS OF 4-BROMO-2,5-DIMETHOXYPHENETHYLAMINE” (priority 2021, published 2023)
Entries after “also recorded” stand apart in the source; their conditions may differ. Like-named read-outs stand apart in the source and are kept apart here.

Tests used:
[1] = 93% RH, RT
[2] = Vapor stress, RT
Text: The sample was then centrifuged, while still warm, and the mother liquor was decanted. The isolated solids were air-dried and analyzed by XRPD.

[3] = Dynamic vapor sorption (DVS) with XRPD of the post-DVS sample; type: physicochemical; details: for hygroscopicity based on DVS data: 5 to 95% RH; for moisture gain by DVS: adsorption 5 to 95% RH; for behaviour on desorption / form change by XRPD of post-DVS sample: desorption 95 to 5% RH
Summary of the method: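 Sample (about 2-25 mg depending on run) held at 25° C. and stepped in 10% RH increments 5→95% RH (adsorption) then 95→5% RH (desorption). Each step advanced at 0.01% weight change (in 5 min for later runs) or after a maximum of 1 h or 90 min; percent weight change reported.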

[4] = for recrystallization of non-crystalline material upon heating (XRPD): heated at ~110° C. for 10 minutes
[5] = 25° C., listed as Non-crystalline 2C-B tartrate
[6] = 25° C., listed as non-crystalline 2C-B tartrate

COc1cc(CCN)c(OC)cc1Br.O=C(O)C(O)C(O)C(=O)O [non-crystalline 2C-B Tartrate, 4-bromo-2,5-dimethoxyphenethylamine (2C-B) tartrate]
XRPD result after humidity stress [1]: Tartrate (Form 1)
XRPD result after vapor stress ([2]; EtOH): Tartrate (Form 1)
XRPD result after vapor stress ([2]; H2O): Tartrate (Form 1)
XRPD result after vapor stress ([2]; acetone): Tartrate (Form 1)
hygroscopicity based on DVS data [3, 5]: hygroscopic
hygroscopicity based on DVS data [3, 6]: hygroscopic
moisture gain by DVS [3, 5]: 11.7%
moisture gain by DVS [3, 6]: 11.7%
moisture gain by DVS above 55% RH ([3]; above 55% RH): 9.7%
behaviour on desorption / form change by XRPD of post-DVS sample ([3]; listed as Non-crystalline 2C-B tartrate): remained non-crystalline
behaviour on desorption / form change by XRPD of post-DVS sample ([3]; listed as non-crystalline 2C-B tartrate): remains non-crystalline
DVS desorption weight loss, 95-5% RH ([3]; desorption, 95-5% RH, 25° C.): 95-5% RH: 12.3% loss
post-DVS XRPD ([3]; solids after DVS cycle, NC = non-crystalline, br pk = broad peak): NC + br pk (25°)
DVS sorption, weight gain 5-55% RH ([3]; sorption, 5-55% RH, 25° C.): 5-55% RH: 2.0% gain
DVS sorption total gain ([3]; sorption, 5-95% RH, 25° C.): Total gain: 11.7%
DVS sorption, weight gain 55-95% RH ([3]; sorption, 55-95% RH, 25° C.): 55-95% RH: 9.7% gain
XRPD result after heat stress ([4]; 60° C., 9 d): NC + br pk (23°)
XRPD result after heat stress ([4]; 110° C., 10 min.): Tartrate (Form 1) +
recrystallization of non-crystalline material upon heating (XRPD) [4]: recrystallizes to Tartrate (Form 1) upon heating; also recorded: crystallized to 2C-B Tartrate (Form 1)
recrystallization of non-crystalline material upon heating (XRPD) ([4]; listed as non-crystalline tartrate): crystallization to Tartrate (Form 1) was observed by XRPD
